From US12359169B2, “Universal CAR-T cell and preparation method and use thereof” (SHANGHAI LONGYAO BIOTECHNOLOGY INC., LTD., priority 2018, dated 2025)

What was measured:
CD3^−20uCAR-T cells = assay: Regulation of U-CAR-T survival by ganciclovir in vivo (Raji xenograft); details: NSG mice with Raji, FIG. 4C
Procedure: NSG mice (n=6/group) were injected intravenously with 5×10^5 Raji, which was followed by the administration of 1×10^7 CD3^−20uCAR-T cells on day 7 or two hundred micrograms of Ganciclovir were administered on day 7, 10 and 13. 7 days after the treatment, bone marrow, spleen and peripheral blood were collected for analysis of CAR-T cell (mCD45^−hCD45^+hCD3^+) persistence and Raji (mCD45^−hCD45^+hCD19^+) tumor cell burden (FIG. 4C). Statistical significance was determined by Mann-Whitney U test and presented by *P<0.05, **P<0.01, ***P<0.001; NS: Not Significant. Statistical significance was determined by unpaired t test. Statistical significance was presented by *P<0.05, ***P<0.001.

U-CAR-T cells = assay: Regulation of U-CAR-T survival by ganciclovir in vitro; format: cell-based, human; details: ganciclovir 0-3 μg/mL, 48 hours, anti-CD20 and anti-CD19 U-CAR-T, FIG. 4A
Procedure: The anti-CD20 U-CAR-T cells obtained in Example 1, anti-CD19 U-CAR-T cells (prepared according to the method in Example 1) and the control CAR-T (without knockout of CD3) were inoculated into 96-well plates, and the number of surviving CAR-Ts was compared after 48 hours by adding the indicated concentration of ganciclovir (0, 0.1 μg/mL, 0.3 μg/mL, 1 μg/mL, 3 μg/mL), and the results are shown in FIG. 4A.

CD3 gene = assay: sgRNA knockdown efficiency assay (transient transfection, flow detection with anti-TCR antibody); format: cell-based, human; details: Jurkat cells, 0.6 μg pLenti-CrisprV2 plasmid, harvested at 48 h, FIG. 1F
Procedure: 2×10^5 Jurkat cells were transiently transfected with 0.6 μg pLenti-CrisprV2-hCD3E1/E2/D1/D2/Z1/Z2/G1/G2/G3 plasmids and cells were harvested at 48 h. Anti-TCR antibody was used for flow detection and untransfected plasmids were used as negative control.
The box in the figure represented the knockdown efficiency, where Z1 has the highest knockdown efficiency (about 81.2%).

Row | Compound | clearance of CD3− UCAR-T cells from organs (CD3^−20uCAR-T cells; 200 micrograms ganciclovir on day 7, 10 and 13, bone marrow, spleen, peripheral blood) | tumor load (CD3^−20uCAR-T cells; CD3− UCAR-T plus ganciclovir, compared to CD3+ CAR-T) | number of surviving CAR-Ts (survival of U-CAR-T) (U-CAR-T cells) | knockdown efficiency (CD3 gene)
1 | Nc1nc(O)c2ncn(COC(CO)CO)c2n1 [ganciclovir] | effectively cleared | elevated tumor load | can regulate the survival of U-CAR-T | 
2 | Z1: sgRNA for knockout of CD3 zeta, SEQ ID NO: 8, GTGGAAGGCGCTTTTCACCG (listed as DNA, chemistry not given here) |  |  |  | about 81.2%
